# Test results as given in patent publication US20190174812A1, “SOLID ORAL NICOTINE FORMULATION” (Fertin Pharma A/S, priority 2017, published 2019).
# Conditions: nicotine concentration raised from 100 microgram/mL to 14,000 microgram/mL
smiles,measurement,value
CN1CCCC1c1cccnc1 (stereo not shown) [nicotine],Decrease of permeability of nicotine across the buccal mucosa (factor),two
